For one data set, the system named is HepG2. Description: Cytotoxicity against human HepG2 cells at 0.0003 to 100 uM after 48 hrs by ATPlite assay. Format: cell-based. The settings on record: hepg2, 48 h. (In general: In ATP-based viability assays light output follows the ATP content of the culture.)
In a further data set the test system is K562. Description: Cytotoxicity against human K562 cells at 0.0003 to 100 uM after 48 hrs by ATPlite assay. Format: cell-based. As to conditions: k562, 48 h.
The nature of data set [1]: Partition coefficient, logP of the compound in octan-1-ol and phosphate buffer at pH 7.4 at 25 degC after 2 hrs by UV-vis spectrometer. Format: physicochemical. As to conditions: octan-1-ol/phosphate buffer.
Data set [2] can be described thus: Antioxidant activity assessed as DPPH radical scavenging activity after 30 mins. Type of data set: functional. Background: Loss of DPPH colour is used to gauge radical scavenging.
A further data set relates to Liver. Description: Antioxidant activity against tert-butyl hydroperoxide-induced lipoperoxidation in rat liver microsomal membranes incubated for 60 mins by TBARS assay. The settings on record: 1 h. Type of data set: functional, cell membranes, Microsomal Membrane. A general note: Liver microsomes are a subcellular fraction often used to study metabolism.
The next data set relates to CAL-51. Description: Cytotoxicity against human CAL51 at 0.0003 to 100 uM after 48 hrs by ATPlite assay. Format: cell-based. As to conditions: cal-51, 48 h.
Data set [3] is described as follows: Cytotoxicity against human primary prostate mesenchymal cells at 0.0003 to 100 uM after 48 hrs by ATPlite assay. Type of data set: cell-based. The settings on record: primary prostate mesenchymal cell.
The next data set has as its system TERT-RPE1. Description: Cytotoxicity against human RPE1 cells at 0.0003 to 100 uM after 48 hrs by ATPlite assay. The settings on record: tert-rpe1, 48 h. Format: cell-based.
For a further data set, the system named is BJ. Description: Cytotoxicity against human BJ cells at 0.0003 to 100 uM after 48 hrs by ATPlite assay. Type of data set: cell-based.
The test system of another data set is MDA-MB-231. Description: Cytotoxicity against human MDA-MB-231 cells at 0.0003 to 100 uM after 48 hrs by ATPlite assay. Type of data set: cell-based. The settings on record: mda-mb-231, 48 h.
In another data set the test system is PC-3. Description: Cytotoxicity against human PC3 cells at 0.0003 to 100 uM after 48 hrs by ATPlite assay. Type of data set: cell-based. As to conditions: pc-3, 48 h.
Data set [4] in a line: Antioxidant activity assessed as trolox equivalent of ABTS radical scavenging activity at 100 uM incubated for >= 5 mins. Format: functional.
Data set [5] can be described thus: Antiradical activity assessed as gallic acid equivalents of Foline-Ciocalteu reagent reducing capacity at 1 mM preincubated for 5 mins followed by Na2CO3 addition measured after 90 mins.
The test system of a further data set is HL-60. Description: Cytotoxicity against human HL60 cells at 0.0003 to 100 uM after 48 hrs by ATPlite assay. As to conditions: hl-60, 48 h. Format: cell-based.
The test system of a further data set is MCF7. Description: Cytotoxicity against human MCF7 cells at 0.0003 to 100 uM after 48 hrs by ATPlite assay. Format: cell-based. The settings on record: mcf7, 48 h.

Broadly, the logD is the decadic logarithm of the distribution of all forms, ionised or not, between an organic phase and buffer at a given pH. A low value points to lower lipophilicity. In general, IC50 refers to the concentration needed to halve the response being measured.

Regarding `COc1cc(-c2oc3c(O)cc(-c4oc5cc(O)cc(O)c5c(=O)c4O)cc3c2C)ccc1O`, the Activity entry (in the data set with HepG2; with K562; with CAL-51; in data set [3]; with TERT-RPE1; in the data set on BJ) was “Toxic” in each case. In addition, the Activity result with MDA-MB-231 is “Toxic”; in the data set with PC-3, “Toxic”; in [4], 1.43 equiv; in data set [5], 2.13 equiv; with HL-60 it was “Toxic”; with MCF7 it was “Toxic”. The logD at 2 h in data set [1] was -0.24. In addition, the values for the 50% inhibitory concentration (IC50) (in data set [2]; in the data set with Liver) were 3.56 µM and 6.43 µM, respectively.
Turning to `COc1cc([C@@H]2Oc3c(O)cc([C@@H]4CC(=O)c5c(O)cc(O)cc5O4)cc3[C@H]2CO)ccc1O`, the Activity result (with HepG2; in the data set on K562; with CAL-51; in data set [3]; with TERT-RPE1; with BJ) was “Toxic” in each case. Further, the Activity result in the data set with MDA-MB-231 is “Toxic”; with PC-3, “Toxic”; in [4], 0.77 equiv; in data set [5], 1.24 equiv; with HL-60 it was “Toxic”; in the data set on MCF7, “Toxic”. The logD at 2 h in [1] was -0.37. In addition, the results for the IC50 (in [2]; in the data set with Liver) were 43 µM and 12.6 µM, respectively.
As for `COc1cc([C@@H]2Oc3c(O)cc(-c4oc5cc(O)cc(O)c5c(=O)c4O)cc3[C@H]2CO)ccc1O`, the Activity result (with HepG2; with K562; with CAL-51; in data set [3]; in the data set on TERT-RPE1; with BJ) was “Toxic” throughout. Moreover, the Activity entry is “Toxic” in the data set with MDA-MB-231; “Toxic” with PC-3; 1.79 equiv in [4]; 3.06 equiv in [5]; “Toxic” in the data set with HL-60; “Toxic” in the data set on MCF7. The logD at 2 h in data set [1] is -1.01. The IC50 in data set [2] is 4.88 µM; in the data set with Liver, 5.45 µM.
`COc1cc(-c2oc3c(O)cc([C@H]4Oc5cc(O)cc(O)c5C(=O)[C@@H]4O)cc3c2C)ccc1O`: the Activity result (in the data set on HepG2; in the data set on K562; in the data set with CAL-51; in data set [3]; in the data set with TERT-RPE1; with BJ) was “Toxic” each time. In addition, the Activity result in the data set with MDA-MB-231 was “Toxic”; with PC-3, “Toxic”; in [4] it was 0.99 equiv; in data set [5], 1.74 equiv; with HL-60, “Toxic”; with MCF7, “Toxic”. The logD at 2 h in data set [1] is -0.74. Besides, the results for the half-inhibitory concentration (IC50) (in data set [2]; with Liver) were 17.9 µM and 4.12 µM, respectively.
Regarding `COc1cc(C2Oc3cc([C@H]4Oc5cc(O)cc(O)c5C(=O)[C@@H]4O)ccc3OC2CO)ccc1O` (mixture of isomers) [SILIBININ], the IC50 in data set [2] worked out at 553 µM; in the data set with Liver, 67 µM. Moreover, the Activity was 0.47 equiv in data set [4] and 0.92 equiv in data set [5].
For `CC[C@@]1(O)C(=O)OCc2c1cc1n(c2=O)Cc2cc3ccccc3nc2-1` [CAMPTOTHECIN], the Activity result (with HepG2; with K562; in the data set on CAL-51; in data set [3]; with TERT-RPE1; in the data set on BJ) was “Toxic” in each case. Moreover, the Activity entry in the data set on MDA-MB-231, in the data set on PC-3, in the data set with HL-60 and with MCF7 was “Toxic” throughout.
Consider `COc1cc(C2Oc3cc(-c4oc5cc(O)cc(O)c5c(=O)c4O)ccc3OC2CO)ccc1O` (stereo not drawn) [DEHYDROSILYLBIN], for which the Activity entry (in the data set with HepG2; in the data set on K562; in the data set on CAL-51; in data set [3]; in the data set with TERT-RPE1; in the data set on BJ) was “Toxic” each time. In addition, the Activity result in the data set on MDA-MB-231 was “Toxic”; with PC-3, “Toxic”; in data set [4] it was 0.56 equiv; in data set [5] it was 1.29 equiv; in the data set on HL-60 it was “Toxic”; in the data set with MCF7 it was “Toxic”. Besides, the concentration for half-maximal inhibition (IC50) in data set [2] was 9.32 µM; in the data set on Liver, 13 µM.
Turning to `COc1cc([C@@H]2Oc3c(O)ccc([C@H]4Oc5cc(O)cc(O)c5C(=O)[C@@H]4O)c3[C@H]2CO)ccc1O` [ISOSILYCHRISTIN], the Activity entry (in the data set on HepG2; in the data set with K562; in the data set on CAL-51; in [3]; in the data set with TERT-RPE1; with BJ) was “Non-Toxic” each time. Besides, the Activity entry in the data set on MDA-MB-231 was “Non-Toxic”; in the data set with PC-3, “Non-Toxic”; in data set [4] it was 0.65 equiv; in [5], 1.74 equiv; with HL-60 it was “Non-Toxic”; with MCF7, “Non-Toxic”. Also, the logD at 2 h in data set [1] is -0.47. For the same compound, the half-maximal inhibitory concentration (IC50) in data set [2] was 53.1 µM; in the data set with Liver, 36.7 µM.
Turning to `COc1cc(C2Oc3c(O)cc([C@H]4Oc5cc(O)cc(O)c5C(=O)[C@@H]4O)cc3C2CO)ccc1O` (stereo partly drawn) [SILICRISTIN], the Activity result (in the data set on HepG2; in the data set on K562; in the data set with CAL-51; in [3]; with TERT-RPE1; with BJ) was “Non-Toxic” in each case. The Activity result in the data set with MDA-MB-231 was “Non-Toxic”; in the data set on PC-3, “Non-Toxic”; in data set [4], 1.09 equiv; in data set [5], 1.49 equiv; in the data set on HL-60 it was “Non-Toxic”; with MCF7 it was “Non-Toxic”. Further, the pH-dependent lipophilicity (logD) at 2 h in data set [1] was -0.39. Besides, the IC50 was found to be 19 µM in [2] and 10.3 µM with Liver.
Consider `COc1cc([C@H]2Oc3cc([C@H]4Oc5cc(O)cc(O)c5C(=O)[C@@H]4O)ccc3O[C@@H]2CO)ccc1O` [SILYBIN A], for which the Activity result (in the data set with HepG2; with K562; in the data set on CAL-51; in data set [3]; with TERT-RPE1; in the data set on BJ) was “Toxic” each time. Besides, the Activity result in the data set on MDA-MB-231, in the data set with PC-3, with HL-60 and with MCF7 was “Toxic” in each case.
With `COc1cc([C@@H]2Oc3cc([C@H]4Oc5cc(O)cc(O)c5C(=O)[C@@H]4O)ccc3O[C@H]2CO)ccc1O` [SILYBIN B], the Activity result (in the data set on HepG2; in the data set on K562; in the data set with CAL-51; in data set [3]; in the data set on TERT-RPE1; in the data set with BJ) was “Toxic” each time. For the same compound, the Activity entry in the data set with MDA-MB-231, in the data set on PC-3, in the data set on HL-60 and in the data set on MCF7 was “Toxic” throughout.
